According to ChEMBL document CHEMBL1201862, “PubChem BioAssay data set” (2004):
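Interpolation was linear, between the two tested concentrations surrounding the appropriate level; five concentrations were tested over 48 hours in 96-well plates. GI50 marks 50% less growth.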 Activity calls are given as the source filed them. Cut-off read from the data, not from the text of the source: active = GI50 up to about 1.1 µM and inactive = higher.

Columns and labels:
Experiment in all cases: DTP human tumour cell line panel, 48 h
U-251 = test system: U-251
HT-29 = test system: HT-29
SK-OV-3 = test system: SK-OV-3
TK-10 = test system: TK-10
MOLT-4 = test system: MOLT-4
SK-MEL-28 = test system: SK-MEL-28
M14 = test system: M14
SF-539 = test system: SF-539
SR = test system: SR
OVCAR-3 = test system: OVCAR-3
786-0 = test system: 786-0
HOP-18 = test system: HOP-18
DMS-273 = test system: DMS-273
SNB-78 = test system: SNB-78
UACC-62 = test system: UACC-62
UO-31 = test system: UO-31
HOP-92 = test system: HOP-92
UACC-257 = test system: UACC-257
HCC 2998 = test system: HCC 2998
DU-145 = test system: DU-145

Row | Compound | GI50 (U-251) | GI50 (HT-29) | GI50 (SK-OV-3) | GI50 (TK-10) | GI50 (MOLT-4) | GI50 (SK-MEL-28) | GI50 (M14) | GI50 (SF-539) | GI50 (SR) | GI50 (OVCAR-3) | GI50 (786-0) | GI50 (HOP-18) | GI50 (DMS-273) | GI50 (SNB-78) | GI50 (UACC-62) | GI50 (UO-31) | GI50 (HOP-92) | GI50 (UACC-257) | GI50 (HCC 2998) | GI50 (DU-145)
1 | O=C1C(c2ccc([N+](=O)[O-])cc2)=[N+]([O-])c2ccc([N+](=O)[O-])cc21 | 49.9 µM (inactive) | 73.1 µM (inactive) | 36.4 µM (inactive) | 77.8 µM (inactive) | 27 µM (inactive) | > 100 µM (inactive) | 96.2 µM (inactive) | 52.1 µM (inactive) | 35.1 µM (inactive) | 17.3 µM (inactive) | > 100 µM (inactive) | 54.8 µM (inactive) | 69.7 µM (inactive) | 79.8 µM (inactive) | 21 µM (inactive) | 48.9 µM (inactive) |  |  |  | 
2 | CN(C)/N=N/c1ccc([N+](=O)[O-])cc1C(N)=O | > 100 µM (inactive) | > 100 µM (inactive) | > 100 µM (inactive) |  | > 79.6 µM (inactive) | > 100 µM (inactive) |  | > 100 µM (inactive) |  | > 100 µM (inactive) |  | > 100 µM (inactive) | > 100 µM (inactive) | > 100 µM (inactive) | > 100 µM (inactive) | > 82 µM (inactive) | > 100 µM (inactive) | > 100 µM (inactive) | > 100 µM (inactive) | 
3 | CC(C)(C)C(=O)OCC1OC(N=[N+]=[N-])C(OC(=O)C(C)(C)C)C(OC(=O)C(C)(C)C)C1OC(=O)C(C)(C)C (stereo unspecified) | > 100 µM (inactive) | > 100 µM (inactive) | > 100 µM (inactive) | > 100 µM (inactive) | > 100 µM (inactive) | > 100 µM (inactive) | > 100 µM (inactive) | > 100 µM (inactive) | > 100 µM (inactive) | > 100 µM (inactive) |  |  | > 100 µM (inactive) | > 100 µM (inactive) | > 100 µM (inactive) | > 100 µM (inactive) | > 100 µM (inactive) | 82.2 µM (inactive) | > 100 µM (inactive) | 
4 | COc1cc2c(cc1O)CCN[C@@]21CS[C@H]2c3c(OC(C)=O)c(C)c4c(c3C(COC1=O)N1C2C2NC(Cc3cc(C)c(OC)c(O)c32)[C@@H]1C#N)OCO4 (stereo partly specified) | < 0.01 µM (active) | < 0.01 µM (active) |  | < 0.01 µM (active) | < 0.01 µM (active) | < 0.01 µM (active) | < 0.01 µM (active) | < 0.01 µM (active) | < 0.01 µM (active) | < 0.01 µM (active) | < 0.01 µM (active) |  | < 0.01 µM (active) |  | < 0.01 µM (active) | < 0.01 µM (active) |  |  | < 0.01 µM (active) | 
5 | Cc1cc2oc3c(ccc(=O)n3C)c(=O)c2c(C)c1Cl | 38.2 µM (inactive) | 38.3 µM (inactive) | 75.5 µM (inactive) | > 100 µM (inactive) |  | 26.5 µM (inactive) | 28.5 µM (inactive) | 23.8 µM (inactive) | 38.1 µM (inactive) | 42.3 µM (inactive) |  |  |  |  | 40.1 µM (inactive) | 73.5 µM (inactive) | 50.1 µM (inactive) |  | > 100 µM (inactive) | 56.6 µM (inactive)
6 | O=C(O)c1ccccc1/C=C1\Cc2ccc3c(c2C1=O)CCCC3 | 44.7 µM (inactive) | 50.6 µM (inactive) | 94.8 µM (inactive) | 75.2 µM (inactive) | 25.2 µM (inactive) | 39.2 µM (inactive) | 28.9 µM (inactive) | 26.4 µM (inactive) | 26.8 µM (inactive) | 31 µM (inactive) | 98.9 µM (inactive) |  |  |  | 21.1 µM (inactive) | 63.5 µM (inactive) | 14.3 µM (inactive) | 25.1 µM (inactive) | 31.3 µM (inactive) | 41.4 µM (inactive)
7 | CCOC1CC(=O)c2c(Br)sc(Br)c21 (stereo unspecified) | 16.9 µM (inactive) | 21.3 µM (inactive) | 16.5 µM (inactive) | 20.7 µM (inactive) | 14.3 µM (inactive) | 19.6 µM (inactive) | 17.1 µM (inactive) | 26.4 µM (inactive) | 21.7 µM (inactive) | 14.6 µM (inactive) | 30.7 µM (inactive) |  |  |  | 18.7 µM (inactive) | 18.2 µM (inactive) | 17.5 µM (inactive) | 16.9 µM (inactive) | 21.9 µM (inactive) | 18 µM (inactive)
8 | COc1ccc([Se][Se]c2ccc(OC)cc2OC)c(OC)c1 |  | 3.14 µM (inactive) | 32.4 µM (inactive) | 4.06 µM (inactive) | 3.07 µM (inactive) | 2.16 µM (inactive) | 2.92 µM (inactive) | 1.75 µM (inactive) |  | 3.52 µM (inactive) | 2.81 µM (inactive) | 1.97 µM (inactive) | 5.12 µM (inactive) | 2.66 µM (inactive) | 1.93 µM (inactive) | 2.4 µM (inactive) | 2.35 µM (inactive) | 2.45 µM (inactive) | 6.07 µM (inactive) | 
9 | C=COCCCOc1ccccc1 | > 100 µM (inactive) | > 100 µM (inactive) |  | > 100 µM (inactive) | > 100 µM (inactive) | > 100 µM (inactive) | > 100 µM (inactive) | > 100 µM (inactive) | > 100 µM (inactive) | > 100 µM (inactive) |  | 1.53 µM (inactive) | > 100 µM (inactive) |  |  | > 100 µM (inactive) |  |  | > 100 µM (inactive) | 
10 | CCCn1cc2c3c(cccc31)C1C=C(C)CN(C)C1C2 (stereo unspecified) | 19 µM (inactive) | 12.9 µM (inactive) | 37.3 µM (inactive) |  | 9.66 µM (inactive) | 18.1 µM (inactive) |  | 25.6 µM (inactive) |  | 20.4 µM (inactive) |  | 13.7 µM (inactive) | 13.3 µM (inactive) | 30.3 µM (inactive) | 23.4 µM (inactive) | 9.71 µM (inactive) | 11.7 µM (inactive) | 7.69 µM (inactive) | 15.2 µM (inactive) | 
11 | O=c1[nH]nc(Cn2c3ccc(Br)cc3c3nc4ccccc4nc32)n1C1CCCCC1 | 30.5 µM (inactive) | 36.1 µM (inactive) | 87.1 µM (inactive) | 29.8 µM (inactive) | < 0.01 µM (active) | 19.3 µM (inactive) | 35.1 µM (inactive) | 13.3 µM (inactive) | 2.08 µM (inactive) | 23.3 µM (inactive) | 25.2 µM (inactive) |  |  |  | 21.5 µM (inactive) | > 100 µM (inactive) | 46.3 µM (inactive) | 26.2 µM (inactive) | 54.6 µM (inactive) | 32 µM (inactive)
12 | COC(=O)/C=C/C(=O)C1C(C(=O)OC)C2(C(=O)OC)CCC1(C(=O)OC)N2 (stereo unspecified) | > 100 µM (inactive) | > 100 µM (inactive) | > 100 µM (inactive) | > 100 µM (inactive) | > 100 µM (inactive) | > 100 µM (inactive) | > 100 µM (inactive) | > 100 µM (inactive) | > 100 µM (inactive) | > 100 µM (inactive) | > 100 µM (inactive) | > 100 µM (inactive) |  | > 100 µM (inactive) | > 100 µM (inactive) | > 100 µM (inactive) | < 0.01 µM (active) |  | > 100 µM (inactive) | 
13 | C=CS(=O)(=O)CCN1CC1 | > 10 µM (inactive) | > 10 µM (inactive) | > 10 µM (inactive) | > 10 µM (inactive) | > 10 µM (inactive) | > 10 µM (inactive) | > 10 µM (inactive) | > 10 µM (inactive) | > 10 µM (inactive) | > 10 µM (inactive) | > 10 µM (inactive) |  |  |  | > 10 µM (inactive) |  | > 10 µM (inactive) | > 10 µM (inactive) | > 10 µM (inactive) | > 10 µM (inactive)
14 | C=C1C(=O)O[C@@H]2[C@H]3O[C@]3(C)CCC=C(C)CC[C@@H]12 | 41.6 µM (inactive) | 23.6 µM (inactive) | 54.7 µM (inactive) |  | 14.2 µM (inactive) | 21.1 µM (inactive) |  | 19 µM (inactive) |  | 18.4 µM (inactive) |  | 14.9 µM (inactive) | 24.6 µM (inactive) | 18.2 µM (inactive) | 16.8 µM (inactive) | 42 µM (inactive) | 13.6 µM (inactive) | 14.9 µM (inactive) | 24.2 µM (inactive) | 
15 | O=C(NNC(=O)c1nsc2ccccc12)c1ccc(Cl)cc1 | 16.7 µM (inactive) | 20.3 µM (inactive) |  | 26.3 µM (inactive) | 20.4 µM (inactive) | 16.9 µM (inactive) | 19.5 µM (inactive) | 17 µM (inactive) | 25.1 µM (inactive) | 17.2 µM (inactive) |  | 10.2 µM (inactive) | 8.11 µM (inactive) | 24.8 µM (inactive) | > 10 µM (inactive) | 18.9 µM (inactive) | 17.1 µM (inactive) | 21.2 µM (inactive) | 16.9 µM (inactive) | 
16 | CC(C)(C)OC(=O)NC1CCCC1=O (stereo unspecified) | > 100 µM (inactive) | > 100 µM (inactive) | > 100 µM (inactive) | > 100 µM (inactive) | > 100 µM (inactive) | > 100 µM (inactive) | > 100 µM (inactive) | > 100 µM (inactive) | > 100 µM (inactive) | > 100 µM (inactive) | > 100 µM (inactive) |  | > 100 µM (inactive) | > 100 µM (inactive) | > 100 µM (inactive) | > 100 µM (inactive) | > 100 µM (inactive) | > 100 µM (inactive) | > 100 µM (inactive) | 
17 | CCCCNC1=C2C(=O)NN=C2CO1 | > 100 µM (inactive) | > 100 µM (inactive) | > 100 µM (inactive) | > 100 µM (inactive) | > 100 µM (inactive) | > 100 µM (inactive) | > 100 µM (inactive) | > 100 µM (inactive) | > 100 µM (inactive) |  |  |  | > 100 µM (inactive) | > 100 µM (inactive) | > 100 µM (inactive) | > 100 µM (inactive) | > 100 µM (inactive) | > 100 µM (inactive) | > 100 µM (inactive) | 
